According to patent US8232408B2, “Crystalline 1-(3-fluorophenyl)-5-methyl-2-(1H)pyridone, the preparation methods, compositions and applications thereof” (Sunshine Lake Pharma Co., Ltd., priority 2008, dated 2012):
Converted amounts (≈) assume the structure as drawn. Like-named read-outs stand apart in the source and are kept apart here.

What was measured:
renal interstitial cell = conditions: cited from earlier work
[1] = Solubility per "Testing Method For Determining The Solubility", Chinese Pharmacopoeia 2005; format: physicochemical; conditions: water, 25±1° C.
Excerpt: (Testing method is according to the “Testing Method For Determining The Solubility” in The Chinese Pharmacopoeia 2005, the example section of the second part, the last line on the first page to the first line on the second.)
2. […] It can ensure that the drug can be steadily released after taking orally. The drug can mix with one's internal environment easily after release, which renders the steady absorption of the drug, and the achievement of a relatively stable bioavailability.

[2] = Solubility measurement: excess sample shaken in purified water for 48 hours, filtered supernatant measured; format: physicochemical; conditions: thermodynamic from solid, shaken 48 hours
Method: Solubility measurement: excess crystalline FFD solid dispersion was put into a cone-shaped bottle with a stopper. After 100 ml purified water was added, the solution was shaken at a constant of 25° C. and 37° C. separately for 48 hours. The filtered supernatants were diluted and their concentrations were measured thrice for each sample.

solubility ([1]; 25 °C, thermodynamic from solid, read-out: solubility) [µg/mL]	solubility [1]	solubility at 48 h ([2]; 25° C.) [µg/mL]	solubility at 48 h ([2]; 37° C.) [µg/mL]	SMILES	effect on anti-fibrosis (renal interstitial cell)
1410 to 1490 (≈ 6.94 to 7.33 mM)				Cc1ccc(=O)n(-c2cccc(F)c2)c1 [FFD, 1-(3-fluorophenyl)-5-methyl-2-(1H)-pyridone]	good effect on anti-fibrosis
	2.44˜2.55 mg/ml	2440 to 2550 (≈ 12 to 12.5 mM)	3140 to 3160	Cc1ccc(=O)n(-c2cccc(F)c2)c1 [crystalline FFD, 1-(3-fluorophenyl)-5-methyl-2-(1H)-pyridone]	
